Results reported in ChEMBL document CHEMBL4020788, “Synthesis, SAR and molecular docking studies of benzo[d]thiazole-hydrazones as potential antibacterial and antifungal agents” (2017).
≈ marks a conversion by molar mass, not a printed value.

What was measured:
Format in all cases: functional
[1] = system: Staphylococcus aureus; assay: Antibacterial activity against methicillin resistant Staphylococcus aureus MRSA090 at 100 ug/ml after 24 hrs by agar well diffusion method; conditions: MRSA090, 24 h, read-out: DIZ
[2] = system: Escherichia coli; assay: Antibacterial activity against Escherichia coli incubated for overnight by microdilution method
[3] = system: Fusarium oxysporum; assay: Antifungal activity against Fusarium oxysporum at 100 ug/ml after 48 hrs by agar well diffusion method; conditions: read-out: DIZ
[4] = system: Staphylococcus aureus; assay: Antibacterial activity against Staphylococcus aureus at 75 ug/ml after 24 hrs by agar well diffusion method; conditions: read-out: DIZ
[5] = system: Escherichia coli; assay: Antibacterial activity against Escherichia coli at 50 ug/ml after 24 hrs by agar well diffusion method; conditions: read-out: DIZ
[6] = system: Escherichia coli; assay: Antibacterial activity against Escherichia coli at 25 ug/ml after 24 hrs by agar well diffusion method; conditions: read-out: DIZ
[7] = system: Aspergillus niger; assay: Antifungal activity against Aspergillus niger at 25 ug/ml after 48 hrs by agar well diffusion method; conditions: read-out: DIZ
[8] = system: Staphylococcus aureus; assay: Antibacterial activity against Staphylococcus aureus at 25 ug/ml after 24 hrs by agar well diffusion method; conditions: read-out: DIZ
[9] = system: Fusarium oxysporum; assay: Antifungal activity against Fusarium oxysporum at 50 ug/ml after 48 hrs by agar well diffusion method; conditions: read-out: DIZ
[10] = system: Bacillus subtilis; assay: Antibacterial activity against Bacillus subtilis at 100 ug/ml after 24 hrs by agar well diffusion method; conditions: read-out: DIZ
[11] = system: Klebsiella pneumoniae; assay: Antibacterial activity against Klebsiella pneumoniae at 25 ug/ml after 24 hrs by agar well diffusion method; conditions: read-out: DIZ
[12] = system: Staphylococcus aureus; assay: Antibacterial activity against methicillin resistant Staphylococcus aureus MRSA090 incubated for overnight by microdilution method
[13] = system: Fusarium verticillioides; assay: Antifungal activity against Fusarium moniliforme after 48 to 72 hrs by microdilution method
[14] = system: Bacillus subtilis; assay: Antibacterial activity against Bacillus subtilis at 25 ug/ml after 24 hrs by agar well diffusion method; conditions: read-out: DIZ
[15] = system: Fusarium verticillioides; assay: Antifungal activity against Fusarium moniliforme at 25 ug/ml after 48 hrs by agar well diffusion method; conditions: read-out: DIZ
[16] = system: Escherichia coli; assay: Antibacterial activity against Escherichia coli at 75 ug/ml after 24 hrs by agar well diffusion method; conditions: read-out: DIZ
[17] = system: Fusarium oxysporum; assay: Antifungal activity against Fusarium oxysporum at 25 ug/ml after 48 hrs by agar well diffusion method; conditions: read-out: DIZ
[18] = system: Staphylococcus aureus; assay: Antibacterial activity against Staphylococcus aureus at 100 ug/ml after 24 hrs by agar well diffusion method; conditions: read-out: DIZ
[19] = system: Escherichia coli; assay: Antibacterial activity against Escherichia coli at 100 ug/ml after 24 hrs by agar well diffusion method; conditions: read-out: DIZ
[20] = system: Aspergillus niger; assay: Antifungal activity against Aspergillus niger at 50 ug/ml after 48 hrs by agar well diffusion method; conditions: read-out: DIZ
[21] = system: Bacillus subtilis; assay: Antibacterial activity against Bacillus subtilis incubated for overnight by microdilution method
[22] = system: Staphylococcus aureus; assay: Antibacterial activity against Staphylococcus aureus at 50 ug/ml after 24 hrs by agar well diffusion method; conditions: read-out: DIZ
[23] = system: Fusarium verticillioides; assay: Antifungal activity against Fusarium moniliforme at 50 ug/ml after 48 hrs by agar well diffusion method; conditions: read-out: DIZ
[24] = system: Fusarium oxysporum; assay: Antifungal activity against Fusarium oxysporum after 48 to 72 hrs by microdilution method
[25] = system: Aspergillus niger; assay: Antifungal activity against Aspergillus niger after 48 to 72 hrs by microdilution method
[26] = system: Staphylococcus aureus; assay: Antibacterial activity against methicillin resistant Staphylococcus aureus MRSA090 at 75 ug/ml after 24 hrs by agar well diffusion method; conditions: MRSA090, 24 h, read-out: DIZ
[27] = system: Staphylococcus aureus; assay: Antibacterial activity against methicillin resistant Staphylococcus aureus MRSA090 at 25 ug/ml after 24 hrs by agar well diffusion method; conditions: MRSA090, 24 h, read-out: DIZ
[28] = system: Fusarium verticillioides; assay: Antifungal activity against Fusarium moniliforme at 100 ug/ml after 48 hrs by agar well diffusion method; conditions: read-out: DIZ
[29] = system: Aspergillus niger; assay: Antifungal activity against Aspergillus niger at 100 ug/ml after 48 hrs by agar well diffusion method; conditions: read-out: DIZ
[30] = system: Klebsiella pneumoniae; assay: Antibacterial activity against Klebsiella pneumoniae at 50 ug/ml after 24 hrs by agar well diffusion method; conditions: read-out: DIZ
[31] = system: Klebsiella pneumoniae; assay: Antibacterial activity against Klebsiella pneumoniae incubated for overnight by microdilution method
[32] = system: Staphylococcus aureus; assay: Antibacterial activity against methicillin resistant Staphylococcus aureus MRSA090 at 50 ug/ml after 24 hrs by agar well diffusion method; conditions: MRSA090, 24 h, read-out: DIZ
[33] = system: Fusarium verticillioides; assay: Antifungal activity against Fusarium moniliforme at 75 ug/ml after 48 hrs by agar well diffusion method; conditions: read-out: DIZ
[34] = system: Aspergillus niger; assay: Antifungal activity against Aspergillus niger at 75 ug/ml after 48 hrs by agar well diffusion method; conditions: read-out: DIZ
[35] = system: Staphylococcus aureus; assay: Antibacterial activity against Staphylococcus aureus incubated for overnight by microdilution method
[36] = system: Fusarium oxysporum; assay: Antifungal activity against Fusarium oxysporum at 75 ug/ml after 48 hrs by agar well diffusion method; conditions: read-out: DIZ
[37] = system: Bacillus subtilis; assay: Antibacterial activity against Bacillus subtilis at 50 ug/ml after 24 hrs by agar well diffusion method; conditions: read-out: DIZ
[38] = system: Bacillus subtilis; assay: Antibacterial activity against Bacillus subtilis at 75 ug/ml after 24 hrs by agar well diffusion method; conditions: read-out: DIZ
[39] = system: Klebsiella pneumoniae; assay: Antibacterial activity against Klebsiella pneumoniae at 100 ug/ml after 24 hrs by agar well diffusion method; conditions: read-out: DIZ
[40] = system: Klebsiella pneumoniae; assay: Antibacterial activity against Klebsiella pneumoniae at 75 ug/ml after 24 hrs by agar well diffusion method; conditions: read-out: DIZ

Structure (SMILES) | zone of inhibition at 100 µg/mL [1] [mm] | MIC [2] [µg/mL] | zone of inhibition at 100 µg/mL [3] [mm] | zone of inhibition at 75 µg/mL [4] [mm] | zone of inhibition at 50 µg/mL [5] [mm] | zone of inhibition at 25 µg/mL [6] [mm] | zone of inhibition at 25 µg/mL [7] [mm] | zone of inhibition at 25 µg/mL [8] [mm] | zone of inhibition at 50 µg/mL [9] [mm] | zone of inhibition at 100 µg/mL [10] [mm] | zone of inhibition at 25 µg/mL [11] [mm] | MIC [12] [µg/mL] | MIC [13] [µg/mL] | zone of inhibition at 25 µg/mL [14] [mm] | zone of inhibition at 25 µg/mL [15] [mm] | zone of inhibition at 75 µg/mL [16] [mm] | zone of inhibition at 25 µg/mL [17] [mm] | zone of inhibition at 100 µg/mL [18] [mm] | zone of inhibition at 100 µg/mL [19] [mm] | zone of inhibition at 50 µg/mL [20] [mm] | also measured
Cc1cccc2nc(N/N=C/c3cc(O)c(O)c(O)c3)sc12 | 37 | 19 (≈ 60.2 µM) | 33 | 28 | 20 | 14 | 10 | 17 | 22 | 35 | 17 | 18 (≈ 57.1 µM) | 25 (≈ 79.3 µM) | 14 | 10 | 26 | 15 | 31 | 37 | 14 | MIC [21]: 15 µg/mL (≈ 47.6 µM); zone of inhibition at 50 µg/mL [22]: 24 mm; zone of inhibition at 50 µg/mL [23]: 17 mm; MIC [24]: 22 µg/mL (≈ 69.8 µM); MIC [25]: 28 µg/mL (≈ 88.8 µM); zone of inhibition at 75 µg/mL [26]: 33 mm; zone of inhibition at 25 µg/mL [27]: 20 mm; zone of inhibition at 100 µg/mL [28]: 34 mm; zone of inhibition at 100 µg/mL [29]: 23 mm; zone of inhibition at 50 µg/mL [30]: 23 mm; MIC [31]: 24 µg/mL (≈ 76.1 µM); zone of inhibition at 50 µg/mL [32]: 26 mm; zone of inhibition at 75 µg/mL [33]: 26 mm; zone of inhibition at 75 µg/mL [34]: 20 mm; MIC [35]: 17 µg/mL (≈ 53.9 µM); zone of inhibition at 75 µg/mL [36]: 27 mm; zone of inhibition at 50 µg/mL [37]: 22 mm; zone of inhibition at 75 µg/mL [38]: 27 mm; zone of inhibition at 100 µg/mL [39]: 37 mm; zone of inhibition at 75 µg/mL [40]: 28 mm
COc1cc(/C=N/Nc2nc3cccc(C)c3s2)cc(OC)c1OC | 34 | 20 (≈ 56 µM) | 20 | 33 | 25 | 20 | 9 | 22 | 11 | 33 | 21 | 19 (≈ 53.2 µM) | 26 (≈ 72.7 µM) | 19 | 23 | 31 | 7 | 38 | 36 | 14 | MIC [21]: 18 µg/mL (≈ 50.4 µM); zone of inhibition at 50 µg/mL [22]: 28 mm; zone of inhibition at 50 µg/mL [23]: 28 mm; MIC [24]: 23 µg/mL (≈ 64.3 µM); MIC [25]: 30 µg/mL (≈ 83.9 µM); zone of inhibition at 75 µg/mL [26]: 31 mm; zone of inhibition at 25 µg/mL [27]: 19 mm; zone of inhibition at 100 µg/mL [28]: 37 mm; zone of inhibition at 100 µg/mL [29]: 21 mm; zone of inhibition at 50 µg/mL [30]: 27 mm; MIC [31]: 22 µg/mL (≈ 61.5 µM); zone of inhibition at 50 µg/mL [32]: 25 mm; zone of inhibition at 75 µg/mL [33]: 33 mm; zone of inhibition at 75 µg/mL [34]: 20 mm; MIC [35]: 19 µg/mL (≈ 53.2 µM); zone of inhibition at 75 µg/mL [36]: 17 mm; zone of inhibition at 50 µg/mL [37]: 24 mm; zone of inhibition at 75 µg/mL [38]: 28 mm; zone of inhibition at 100 µg/mL [39]: 38 mm; zone of inhibition at 75 µg/mL [40]: 33 mm
Cc1cccc2nc(N/N=C/c3cc4ccccc4[nH]3)sc12 | 30 | 24 (≈ 78.3 µM) | 36 | 24 | 24 | 17 | 12 | 14 | 24 | 21 | 4 | 22 (≈ 71.8 µM) | 24 (≈ 78.3 µM) | 10 | 8 | 30 | 17 | 30 | 33 | 19 | MIC [21]: 25 µg/mL (≈ 81.6 µM); zone of inhibition at 50 µg/mL [22]: 18 mm; zone of inhibition at 50 µg/mL [23]: 14 mm; MIC [24]: 22 µg/mL (≈ 71.8 µM); MIC [25]: 25 µg/mL (≈ 81.6 µM); zone of inhibition at 75 µg/mL [26]: 27 mm; zone of inhibition at 25 µg/mL [27]: 16 mm; zone of inhibition at 100 µg/mL [28]: 22 mm; zone of inhibition at 100 µg/mL [29]: 30 mm; zone of inhibition at 50 µg/mL [30]: 9 mm; MIC [31]: 25 µg/mL (≈ 81.6 µM); zone of inhibition at 50 µg/mL [32]: 23 mm; zone of inhibition at 75 µg/mL [33]: 9 mm; zone of inhibition at 75 µg/mL [34]: 24 mm; MIC [35]: 24 µg/mL (≈ 78.3 µM); zone of inhibition at 75 µg/mL [36]: 31 mm; zone of inhibition at 50 µg/mL [37]: 14 mm; zone of inhibition at 75 µg/mL [38]: 19 mm; zone of inhibition at 100 µg/mL [39]: 24 mm; zone of inhibition at 75 µg/mL [40]: 18 mm
